This test addresses T1, Solute carrier organic anion transporter family member 1B3 (Homo sapiens, UniProt Q9NPD5).
T1 sequence (Q9NPD5 whole entry): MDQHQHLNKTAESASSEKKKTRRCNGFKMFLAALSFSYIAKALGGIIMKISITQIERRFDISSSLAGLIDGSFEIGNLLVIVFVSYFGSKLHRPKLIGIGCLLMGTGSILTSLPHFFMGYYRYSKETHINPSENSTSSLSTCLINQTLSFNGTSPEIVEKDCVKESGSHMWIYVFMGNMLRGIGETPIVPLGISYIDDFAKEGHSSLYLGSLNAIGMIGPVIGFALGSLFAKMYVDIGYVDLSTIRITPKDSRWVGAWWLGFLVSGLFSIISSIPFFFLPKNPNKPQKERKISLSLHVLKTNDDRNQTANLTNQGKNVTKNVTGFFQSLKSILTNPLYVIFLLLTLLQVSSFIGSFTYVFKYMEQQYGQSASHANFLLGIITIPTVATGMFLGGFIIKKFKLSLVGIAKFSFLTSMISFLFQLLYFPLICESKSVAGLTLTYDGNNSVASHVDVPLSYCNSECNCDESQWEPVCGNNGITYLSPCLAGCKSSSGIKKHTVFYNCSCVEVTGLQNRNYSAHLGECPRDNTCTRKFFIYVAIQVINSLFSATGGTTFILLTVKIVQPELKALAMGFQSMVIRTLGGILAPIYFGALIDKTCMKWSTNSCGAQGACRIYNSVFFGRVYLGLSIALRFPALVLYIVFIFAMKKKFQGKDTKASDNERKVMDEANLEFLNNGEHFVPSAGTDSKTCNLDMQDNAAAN
As to the kind of experiment: Inhibition of OATP1B3 (unknown origin).

Molecule `CC(C)(O)c1ccc(-c2cccc(N(CC34CCC(c5noc(C(C)(C)F)n5)(CC3)CC4)C(=O)[C@H]3C[C@](O)(C(F)(F)F)C3)c2)cc1` came in with an IC50 of 13.5 µM.

Broadly, the IC50 is the concentration that gives 50% inhibition.
